Source: US12692261B2, “Substituted heterocyclic compounds and therapeutic uses thereof” (Bayer Aktiengesellschaft, priority 2020, dated 2026)
Where two headings read alike, the source gives them in different places.

Assays:
[1] = biological target: T1, full-length human CSNK1D (Homo sapiens, UniProt P48730); test: CSNK1D Assay (ADP-Glo, 1 μM ATP); assay type: biochemical; conditions: Table 3, read-out: CSNK1D IC50 [mol/l] (median)
T1 construct: N-terminal Glutathion-S-Transferase (GST) and full-length human CSNK1D; purchased Life Technologies PV3665; host or cells: baculovirus infected insect cells
T1 sequence (P48730 whole entry): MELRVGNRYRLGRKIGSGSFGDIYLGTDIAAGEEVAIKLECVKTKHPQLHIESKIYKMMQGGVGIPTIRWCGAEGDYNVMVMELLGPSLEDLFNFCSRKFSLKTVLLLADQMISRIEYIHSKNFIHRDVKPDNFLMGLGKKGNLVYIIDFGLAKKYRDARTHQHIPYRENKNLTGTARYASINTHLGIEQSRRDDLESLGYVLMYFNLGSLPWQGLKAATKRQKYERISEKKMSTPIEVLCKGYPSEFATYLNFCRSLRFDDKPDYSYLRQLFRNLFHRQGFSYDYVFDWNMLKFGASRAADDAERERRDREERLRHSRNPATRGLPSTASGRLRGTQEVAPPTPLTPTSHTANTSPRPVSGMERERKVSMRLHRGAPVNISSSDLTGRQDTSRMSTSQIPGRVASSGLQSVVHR
Experimental: CSNK1D-inhibitory activity of compounds of the present invention in presence of 1 μM adenosine-tri-phosphate (ATP) was quantified employing the CSNK1 D assay as described in the following paragraphs. In essence, the enzyme activity is measured by quantification of the adenosine-di-phosphate (ADP), which is generated as a co-product of the enzyme reaction, via the “ADP-Glo™ Kinase Assay” kit from the company Promega. This detection system works as follows: In a first step the ATP not consumed in the kinase reaction is quantitatively converted to cAMP employing an adenylate cyclase (“ADP-Glo-reagent”), then the adenylate cyclase is stopped and the ADP generated in the kinase reaction converted to ATP which generates in a luciferase-based reaction a glow-luminescence signal (“Kinase Detection Reagent”).
Recombinant fusion protein of N-terminal Glutathion-S-Transferase (GST) and full-length human CSNK1D, expressed by baculovirus infected insect cells and purified via Glutathion affinity chromatography, was purchased from Life Technologies (product no. PV3665) and used as enzyme. As substrate for the kinase reaction the biotinylated peptide Btn-Ahx-[…] (C-terminus in amide form) was used which can be purchased e.g. from the company Biosyntan (Berlin-Buch, Germany).
For the assay 50 nl of a 100 fold concentrated solution of the test compound in DMSO was pipetted into a white 1536-well microtiter plate (Greiner Bio-One, Frickenhausen, Germany), 2 μL of a solution of CSNK1D in aqueous assay buffer [50 mM HEPES pH 7.5, 10% (v/v) glycerol, 10 mM MgCl2, 50 mM NaCl, 1 mM dithiothreitol, 0.01% (w/v) bovine serum albumin, 0.01% (v/v) Triton X-100] were added and the mixture was incubated for 15 min at 22° C. to allow pre-binding of the test compounds to the enzyme before the start of the kinase reaction. […] The concentration of CSNK1D was adjusted depending of the activity of the enzyme lot and was chosen appropriate to have the assay in the linear range, a typical concentration is about 0.5 ng/μL. The reaction was stopped by the addition of 2.5 μL of “ADP-Glo-reagent” (1:1.5 fold diluted with water) and the resulting mixture was incubated at 22° C. for 1 h to convert the ATP not consumed in the kinase reaction completely […]. Subsequently 2.5 μL of the “kinase detection reagent” (1.2 fold more concentrated than recommended by the producer) were added, the resulting mixture was incubated at 22° C. for 1 h and then the luminescence measured with a suitable measurement instrument (e.g. Viewlux™ from Perkin-Elmer). The amount of emitted light was taken as a measure for the amount of ADP generated and thereby for the activity of the CSNK1D.

[2] = biological target: T2, wild-type Epidermal Growth Factor Receptor (EGFR) (Homo sapiens, UniProt P00533); test: WT-EGFR Kinase Assay (TR-FRET, 2 mM ATP); assay type: biochemical
T2 construct: a fragment of human EGFR (amino acids R669 to A1210); made in house; host or cells: Sf9 insect cells
T2 sequence (P00533 669-1210): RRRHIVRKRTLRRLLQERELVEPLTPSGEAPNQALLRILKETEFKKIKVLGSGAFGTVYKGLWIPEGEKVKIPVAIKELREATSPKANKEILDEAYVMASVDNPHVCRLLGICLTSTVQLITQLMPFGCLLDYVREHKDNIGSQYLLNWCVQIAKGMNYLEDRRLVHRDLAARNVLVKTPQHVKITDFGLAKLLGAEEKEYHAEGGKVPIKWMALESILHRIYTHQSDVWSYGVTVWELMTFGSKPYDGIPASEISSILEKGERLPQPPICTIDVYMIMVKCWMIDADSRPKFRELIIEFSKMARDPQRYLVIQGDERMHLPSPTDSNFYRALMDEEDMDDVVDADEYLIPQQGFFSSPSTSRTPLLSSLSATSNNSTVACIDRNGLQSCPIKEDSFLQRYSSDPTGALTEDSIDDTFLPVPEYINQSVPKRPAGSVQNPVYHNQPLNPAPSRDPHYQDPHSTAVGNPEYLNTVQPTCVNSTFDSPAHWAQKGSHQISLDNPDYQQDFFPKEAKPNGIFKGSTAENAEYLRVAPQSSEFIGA
From the text: Inhibitory activity of compounds of the present invention against wild-type Epidermal Growth Factor Receptor (EGFR) was quantified employing the TR-FRET based EGFR assay as described in the following paragraphs.
Recombinant fusion protein of N-terminal Glutathion-S-Transferase (GST) and a fragment of human EGFR (amino acids R669 to A1210), expressed in Sf9 insect cells and purified via affinity chromatography using Glutathion Sepharose as described above, was used as kinase. As substrate for the kinase reaction the biotinylated peptide biotin-Ahx-[…] (C-terminus in amide form) was used which can be purchased e.g. form the company Biosynthan GmbH (Berlin-Buch, Germany).
For the assay 50 nl of a 100 fold concentrated solution of the test compound in DMSO was pipetted into either a black low volume 384 well microtiter plate or a black 1536 well microtiter plate (both Greiner Bio-One, Frickenhausen, Germany), 2 μL of a solution of EGFR in aqueous assay buffer [50 mM Hepes pH 7.0, 10 mM MgCl2, 1 mM dithiothreitol, 0.5 mM EGTA, 0.3 mM activated sodium ortho-vanadate, 0.005% (w/v) bovine serum albumin, 0.005% (v/v) Tween-20] were added and the mixture was incubated for 15 min at 22° C. to allow pre-binding of the test compounds to the enzyme before the start of the kinase reaction. […] The concentration of EGFR was adjusted depending of the activity of the enzyme lot and was chosen appropriate to have the assay in the linear range, typical concentration was 7.6 pg/μL. The reaction was stopped by the addition of 3 μL of a solution of HTRF detection reagents (83.3 nM streptavidine-XL665 [Cisbio Bioassays, Codolet, France] and 1.67 nM PT66-Tb-Cryptate, a terbium-cryptate labelled anti-phospho-tyrosine antibody from Cisbio Bioassays [instead of the PT66-Tb-cryptate PT66-Eu-Chelate from Perkin Elmer can also be used]) in an aqueous EDTA-solution (133.3 mM EDTA, 0.2% (w/v) bovine serum albumin in 50 mM HEPES pH 7.5).
The resulting mixture was incubated 1 h at 22° C. to allow the binding of the biotinylated phosphorylated peptide to the streptavidine-XL665 and the PT66-Tb-Cryptate. Subsequently the amount of phosphorylated substrate was evaluated by measurement of the resonance energy transfer from the PT66-Tb-Cryptate to the streptavidine-XL665. Therefore, the fluorescence emissions at 620 nm and 665 nm after excitation at 337 nm were measured in a HTRF reader, e.g. a Pherastar (BMG Labtechnologies, Offenburg, Germany) or a Viewlux (Perkin-Elmer). The ratio of the emissions at 665 nm and at 622 nm was taken as the measure for the amount of phosphorylated substrate.

[3] = EGFR Wildtyp 2 mM ATP IC50 [mol/l] (median), Table 4
[4] = read-out: EGFR Wildtyp 2 mM ATP IC50 [mol/l] (median), Table 4

Row | Compound | IC50 [1] [nM] | IC50 [2, 3] [nM] | IC50 [2, 4] [nM]
1 | O=C(Nc1cc(-c2[nH]c3nccnc3c2-c2ccccn2)ccn1)C(CC(F)(F)F)c1ccc(F)cc1 (single isomer, unassigned) [Example 120, (2R or S)-4,4,4-trifluoro-2-(4-fluorophenyl)-N-{4-[7-(pyridin-2-yl)-5H-pyrrolo[2,3-b]pyrazin-6-yl]pyridin-2-yl}butanamide] | 4.35 | > 20000 | –
2 | O=C(Nc1cc(-c2[nH]c3ccc(F)nc3c2-c2ccc(F)cn2)ccn1)C(CC(F)F)c1ccc(F)cc1 (single isomer, unassigned; (-)) [Example 110, (−)-4,4-difluoro-N-{4-[5-fluoro-3-(5-fluoropyridin-2-yl)-1H-pyrrolo[3,2-b]pyridin-2-yl]pyridin-2-yl}-2-(4-fluorophenyl)butanamide] | 43 | – | > 20000
3 | O=C(Nc1cc(-c2[nH]c3c(C4CCCO4)cc(F)nc3c2-c2ccccn2)ccn1)C(CC(F)F)c1ccc(F)cc1 (single isomer, unassigned) [Example 118, (2R or S)-4,4-difluoro-N-(4-{5-fluoro-7-[(2R or S)-oxolan-2-yl]-3-(pyridin-2-yl)-1H-pyrrolo[3,2-b]pyridin-2-yl}pyridin-2-yl)-2-(4-fluorophenyl)butanamide] | 125 | > 20000 | –
4 | COc1cc(F)nc2c(-c3ccccn3)c(-c3ccnc(NC(=O)C(CC(F)F)c4ccc(F)cc4)c3)[nH]c12 (single isomer, unassigned; (-)) [Example 41, (−)-4,4-difluoro-N-{4-[5-fluoro-7-methoxy-3-(pyridin-2-yl)-1H-pyrrolo[3,2-b]pyridin-2-yl]pyridin-2-yl}-2-(4-fluorophenyl)butanamide] | 4.13 | – | > 20000
5 | O=C(Nc1cc(-c2[nH]c3cccnc3c2-c2ccccn2)ccn1)C(CCO)c1ccc(F)cc1 (stereo not drawn) [Example 104, 2-(4-fluorophenyl)-4-hydroxy-N-(4-(3-(pyridin-2-yl)-1H-pyrrolo[3,2-b]pyridin-2-yl)pyridin-2-yl)-butanamide] | 16.3 | > 20000 | –
6 | CC(C)(O)c1cc(F)nc2c(-c3ccccn3)c(-c3ccnc(NC(=O)C(CC(F)F)c4ccc(F)cc4)c3)[nH]c12 (single isomer, unassigned) [Example 99, (2R or S)-4,4-difluoro-N-{4-[5-fluoro-7-(2-hydroxypropan-2-yl)-3-(pyridin-2-yl)-1H-pyrrolo[3,2-b]pyridin-2-yl]pyridin-2-yl}-2-(4-fluorophenyl)butanamide] | 3.36 | > 20000 | –
7 | O=C(Nc1cc(-c2[nH]c3ccc(F)nc3c2-c2ccccn2)ccn1)[C@H](CC(F)F)c1ccc(F)cc1 (single isomer, unassigned) [Example 3] | 20.1 | > 20000 | –
8 | CC(C)(O)c1cc(F)nc2c(-c3ccccn3)c(-c3ccnc(NC(=O)C(CC(F)F)c4ccc(F)cc4)c3)[nH]c12 (racemic) [Example 98, (2RS)-4,4-difluoro-N-{4-[5-fluoro-7-(2-hydroxypropan-2-yl)-3-(pyridin-2-yl)-1H-pyrrolo[3,2-b]pyridin-2-yl]pyridin-2-yl}-2-(4-fluorophenyl)butanamide] | 6.84 | > 20000 | –
9 | O=C(Nc1cc(-c2[nH]c3ccc(F)nc3c2-c2cc(F)ccn2)ccn1)C(CC(F)F)c1ccc(F)cc1 (racemic) [Example 95, (2RS)-4,4-difluoro-N-{4-[5-fluoro-3-(4-fluoropyridin-2-yl)-1H-pyrrolo[3,2-b]pyridin-2-yl]pyridin-2-yl}-2-(4-fluorophenyl)butanamide] | 10.5 | > 20000 | –
10 | Cc1cnc2c(-c3ccccn3)c(-c3ccnc(NC(=O)C(CC(F)F)c4ccc(F)cc4)c3)[nH]c2c1 (single isomer, unassigned) [Example 8, 4,4-difluoro-2-(4-fluorophenyl)-N-{4-[6-methyl-3-(pyridin-2-yl)-1H-pyrrolo[3,2-b]pyridin-2-yl]pyridin-2-yl}butanamide] | 4.01 | > 20000 | –
11 | O=C(Nc1cc(-c2[nH]c3c(N4CCNCC4)ccnc3c2-c2ccccn2)ccn1)C(CC(F)F)c1ccc(F)cc1 (single isomer, unassigned) [Example 93, (2R or S)-4,4-difluoro-2-(4-fluorophenyl)-N-{4-[7-(piperazin-1-yl)-3-(pyridin-2-yl)-1H-pyrrolo[3,2-b]pyridin-2-yl]pyridin-2-yl}butanamide] | 17.3 | > 20000 | –
12 | O=C(Nc1cc(-c2[nH]c3c(OCC(F)(F)F)ncnc3c2-c2ccccn2)ccn1)C(CC(F)F)c1ccc(F)cc1 (single isomer, unassigned) [Example 124, (2R or S)-4,4-difluoro-2-(4-fluorophenyl)-N-{4-[7-(pyridin-2-yl)-4-(2,2,2-trifluoroethoxy)-5H-pyrrolo[3,2-d]pyrimidin-6-yl]pyridin-2-yl}butanamide] | 46.6 | – | > 20000
13 | O=C(Nc1cc(-c2[nH]c3c(OCC(F)(F)F)ncnc3c2-c2ccccn2)ccn1)C(CC(F)(F)F)c1ccc(F)cc1 (single isomer, unassigned) [Example 126, (2R or S)-4,4,4-trifluoro-2-(4-fluorophenyl)-N-{4-[7-(pyridin-2-yl)-4-(2,2,2-trifluoroethoxy)-5H-pyrrolo[3,2-d]pyrimidin-6-yl]pyridin-2-yl}butanamide] | 7.84 | > 20000 | –
14 | O=C(Nc1cc(-c2[nH]c3cccnc3c2-c2ccccc2)ccn1)C(CC(F)F)c1ccc(F)cc1 (single isomer, unassigned; (+)) [Example 24, (+)-4,4-difluoro-2-(4-fluorophenyl)-N-[4-(3-phenyl-1H-pyrrolo[3,2-b]pyridin-2-yl)pyridin-2-yl]butanamide] | 2.48 | – | > 20000
15 | Cc1cc(F)nc2c(-c3ccccn3)c(-c3ccnc(NC(=O)C(CC(F)F)c4ccc(F)cc4)c3)[nH]c12 (racemic) [Example 36, (rac)-4,4-difluoro-N-{4-[5-fluoro-7-methyl-3-(pyridin-2-yl)-1H-pyrrolo[3,2-b]pyridin-2-yl]pyridin-2-yl}-2-(4-fluorophenyl)butanamide] | 41.9 | > 20000 | –
